Columns and labels:
thyroidectomized animals = assay: Hypocalcemic response in thyroidectomized rats; format: in vivo, rat; details: 3 to 100 mg/kg p.o.
From the text: In subsequent studies, rats received a thyroidectomy (parathyroid glands intact). This surgical procedure effectively removed the C-cells secreting calcitonin and therefore enabled the relative contributions of PTH and calcitonin to the hypocalcemic effect of this compound to be determined. […] The only difference was that the rate of onset of the hypocalcemic response was somewhat delayed in thyroidectomized animals. […] Stimulatory effects of this compound on calcitonin secretion increases the rate of onset, but not the extent, of hypocalcemia.

[1] = biological target: T1, bovine parathyroid cell calcium receptor (Bos taurus, UniProt P35384); assay: Cl- current in Xenopus oocytes injected with BoPCaR 1; format: cell-based
T1 construct: isolation of a single clone (BoPCaR 1) with a cDNA insert of 5.3 kb; expressed in transfected cells
T1 sequence (P35384 20-1085): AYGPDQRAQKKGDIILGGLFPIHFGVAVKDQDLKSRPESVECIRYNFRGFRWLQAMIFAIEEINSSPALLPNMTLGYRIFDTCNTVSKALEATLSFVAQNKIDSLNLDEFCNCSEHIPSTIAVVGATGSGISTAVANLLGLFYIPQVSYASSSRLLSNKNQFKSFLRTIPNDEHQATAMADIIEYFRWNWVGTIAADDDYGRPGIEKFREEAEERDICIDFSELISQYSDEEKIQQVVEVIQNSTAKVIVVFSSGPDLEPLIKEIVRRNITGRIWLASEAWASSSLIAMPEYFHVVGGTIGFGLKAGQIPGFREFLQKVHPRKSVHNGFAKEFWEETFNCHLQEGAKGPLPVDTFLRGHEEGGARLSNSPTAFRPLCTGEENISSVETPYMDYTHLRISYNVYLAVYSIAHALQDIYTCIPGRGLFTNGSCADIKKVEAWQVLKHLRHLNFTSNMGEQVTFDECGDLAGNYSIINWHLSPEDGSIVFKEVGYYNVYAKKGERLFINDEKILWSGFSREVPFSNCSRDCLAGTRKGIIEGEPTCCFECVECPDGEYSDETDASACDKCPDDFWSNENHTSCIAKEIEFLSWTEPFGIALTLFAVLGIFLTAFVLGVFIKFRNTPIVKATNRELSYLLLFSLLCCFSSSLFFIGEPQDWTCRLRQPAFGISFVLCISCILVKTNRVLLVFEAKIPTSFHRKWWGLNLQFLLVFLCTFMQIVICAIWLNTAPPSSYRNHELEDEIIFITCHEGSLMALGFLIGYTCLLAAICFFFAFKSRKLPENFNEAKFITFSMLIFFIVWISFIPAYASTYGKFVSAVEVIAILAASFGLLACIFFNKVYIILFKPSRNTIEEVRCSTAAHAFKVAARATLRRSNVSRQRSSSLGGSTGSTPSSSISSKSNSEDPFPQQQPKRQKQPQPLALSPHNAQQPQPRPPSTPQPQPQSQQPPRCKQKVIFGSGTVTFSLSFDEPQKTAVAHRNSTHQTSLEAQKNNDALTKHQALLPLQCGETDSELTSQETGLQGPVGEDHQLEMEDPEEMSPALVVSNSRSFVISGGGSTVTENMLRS
Procedure: Several pharmacological and biochemical criteria were used to identify this clone as encoding a bona fide bovine parathyroid Ca^2+ receptor. […] These responses increased markedly over a period of one to four days after injection of the eggs with cRNA prepared from the BoPCaR 1 cDNA. Furthermore, the ranges of the concentrations of the two cations eliciting this response were very similar to those shown previously to act on bovine parathyroid cells in vitro.
Xenopus oocytes were injected with BoPCaR 1, the 5.3 Kb cDNA encoding a bovine parathyroid cell calcium receptor as described in Example 25. After two to three days, Cl^− currents were examined in the oocytes using a two-electrode voltage clamp.
Xenopus oocytes were injected with BoPCaR 1 as described in Example 25. After two to three days, Cl^− currents were examined in the oocytes using two electrode voltage clamp.

Bovine parathyroid cells = assay: PTH secretion from bovine parathyroid cells; format: cell-based; details: concentrations that mobilize intracellular Ca2+
Procedure: PTH secretion was measured by first suspending cells in PCB containing 0.5 mM CaCl2 and 0.1% BSA.
Counting of samples and data reduction were performed on a Packard Cobra 5005 gamma counter.

[2] = biological target: T2, osteoclast calcium receptor (Rattus norvegicus, UniProt P48442); assay: [Ca2+]i (indo-1) in single rat osteoclasts; format: cell-based
T2 sequence (P48442 20-1079): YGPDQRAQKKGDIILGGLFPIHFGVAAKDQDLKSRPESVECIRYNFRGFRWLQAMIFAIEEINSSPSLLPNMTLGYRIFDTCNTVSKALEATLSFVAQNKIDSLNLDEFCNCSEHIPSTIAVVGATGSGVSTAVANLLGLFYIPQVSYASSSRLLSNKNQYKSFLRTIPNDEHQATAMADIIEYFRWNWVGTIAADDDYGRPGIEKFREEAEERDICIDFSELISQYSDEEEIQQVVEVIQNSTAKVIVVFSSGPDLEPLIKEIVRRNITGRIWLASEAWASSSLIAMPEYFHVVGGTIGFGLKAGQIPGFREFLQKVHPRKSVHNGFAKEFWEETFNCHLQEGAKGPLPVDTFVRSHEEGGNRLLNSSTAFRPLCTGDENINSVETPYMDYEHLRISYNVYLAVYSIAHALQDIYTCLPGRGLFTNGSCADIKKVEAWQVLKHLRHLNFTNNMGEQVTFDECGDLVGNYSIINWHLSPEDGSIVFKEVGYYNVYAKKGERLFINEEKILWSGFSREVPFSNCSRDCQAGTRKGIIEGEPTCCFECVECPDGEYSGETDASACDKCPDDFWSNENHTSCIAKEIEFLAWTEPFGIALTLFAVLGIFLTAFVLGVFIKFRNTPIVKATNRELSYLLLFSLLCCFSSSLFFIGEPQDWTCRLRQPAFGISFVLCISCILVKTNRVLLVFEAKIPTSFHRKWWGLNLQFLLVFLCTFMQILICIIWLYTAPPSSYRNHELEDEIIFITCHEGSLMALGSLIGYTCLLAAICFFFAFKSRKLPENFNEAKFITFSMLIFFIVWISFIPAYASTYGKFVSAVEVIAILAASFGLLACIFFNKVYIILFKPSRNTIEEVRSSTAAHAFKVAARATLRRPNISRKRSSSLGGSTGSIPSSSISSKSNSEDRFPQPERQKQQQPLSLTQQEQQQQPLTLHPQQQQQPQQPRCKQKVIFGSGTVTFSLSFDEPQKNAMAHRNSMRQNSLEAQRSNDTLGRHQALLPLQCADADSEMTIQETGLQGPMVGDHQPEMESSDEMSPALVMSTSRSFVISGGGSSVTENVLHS

| SMILES | hypocalcemic response (thyroidectomized animals) | EC50 ([1]; 0.3 or 1 mM extracellular Ca2+, read-out: EC50 for increases in Cl- current) [µM] | concentrations producing changes in Cl- current [1] [µM] | PTH secretion (Bovine parathyroid cells) | compounds that caused any large increase in [Ca2+]i [2] | effect on response to subsequent extracellular Ca2+ [2] | increase in [Ca2+]i [2] | EC50 OSTEOCLAST ([2]; Table 6, rat osteoclasts, indo-1) |
| --- | --- | --- | --- | --- | --- | --- | --- | --- |
| COc1cccc([C@@H](C)NCCCc2ccccc2Cl)c1 [NPS R-568, (R)-(+)-N-[3-(2-chlorophenyl)propyl]-α-methyl-3-methoxybenzylamine] | hypocalcemic response equal in magnitude to that produced in sham-operated animals | ~3 |  |  |  |  |  |  |
| NC[C@@H]1O[C@H](O[C@H]2[C@@H](O)[C@H](O[C@@H]3[C@@H](O)[C@H](N)C[C@H](N)[C@H]3O[C@H]3O[C@H](CN)[C@@H](O)[C@H](O)[C@H]3N)O[C@@H]2CO)[C@H](N)[C@@H](O)[C@@H]1O [Neomycin B, neomycin B] |  |  | 20 to 100 | inhibited PTH secretion to the same extent as extracellular Ca^2+ | none | did not block the increase | failed to evoke any increase | inactive |
